Patent US20120208882A1, “Organic Compounds” (priority 2005, published 2012)
pIC50, pKi: −log10 of the molar value. Structures can show the parent of a compound that is named as a salt. Where two headings read alike, the source gives them in different places.

Key:
rh-prostasin = biological target: T1, rh-prostasin (Homo sapiens, UniProt Q16651); assay: Biochemical assay, recombinant human prostasin, fluorescent peptide substrate
T1 construct: made in house
Protocol: (§1) Biochemical assays: Recombinant human prostasin and matriptase and guinea pig prostasin are generated according to methods described in Shipway et al., Biochemical and Biophysical Research Communications 2004; 324(2):953-63). The recombinant enzymes are incubated in an electrolyte buffer test compounds or vehicle in a suitable multiple well assay plate such as a 96 or 384 well plate. At a defined time after the mixing of enzyme with compound. Or vehicle, a suitable fluorescent peptide substrate is added to the assay mixture. As substrate becomes cleaved by the active enzyme; fluorescence (measured using a suitable fluorescence plate reader) increases and the rate of turnover of substrate (i.e. enzyme activity) can be quantified and thus the inhibitory effect of any test compound. The efficacy of test compounds is expressed as the concentration that induces a 50% attenuation in the enzyme activity (Ki). […] Short circuit current (ISC) is then measured by voltage clamping the epithelia to zero millivolts. The amiloride-sensitive ISC is then measured by the addition of amiloride (10 μM) to the apical surface of the epithelia. […] The tracheal potential difference, is then measured using a suitable high impedance voltmeter as described in Takahashi et al., Toxicol Appl Pharmacol. 1995; 131(1):31-6. […]

rh-matriptase = biological target: T2, rh-matriptase (Homo sapiens, UniProt Q9Y5Y6); assay: Biochemical assay, recombinant human matriptase, fluorescent peptide substrate
T2 construct: made in house
T2 sequence (Q9Y5Y6 1-855): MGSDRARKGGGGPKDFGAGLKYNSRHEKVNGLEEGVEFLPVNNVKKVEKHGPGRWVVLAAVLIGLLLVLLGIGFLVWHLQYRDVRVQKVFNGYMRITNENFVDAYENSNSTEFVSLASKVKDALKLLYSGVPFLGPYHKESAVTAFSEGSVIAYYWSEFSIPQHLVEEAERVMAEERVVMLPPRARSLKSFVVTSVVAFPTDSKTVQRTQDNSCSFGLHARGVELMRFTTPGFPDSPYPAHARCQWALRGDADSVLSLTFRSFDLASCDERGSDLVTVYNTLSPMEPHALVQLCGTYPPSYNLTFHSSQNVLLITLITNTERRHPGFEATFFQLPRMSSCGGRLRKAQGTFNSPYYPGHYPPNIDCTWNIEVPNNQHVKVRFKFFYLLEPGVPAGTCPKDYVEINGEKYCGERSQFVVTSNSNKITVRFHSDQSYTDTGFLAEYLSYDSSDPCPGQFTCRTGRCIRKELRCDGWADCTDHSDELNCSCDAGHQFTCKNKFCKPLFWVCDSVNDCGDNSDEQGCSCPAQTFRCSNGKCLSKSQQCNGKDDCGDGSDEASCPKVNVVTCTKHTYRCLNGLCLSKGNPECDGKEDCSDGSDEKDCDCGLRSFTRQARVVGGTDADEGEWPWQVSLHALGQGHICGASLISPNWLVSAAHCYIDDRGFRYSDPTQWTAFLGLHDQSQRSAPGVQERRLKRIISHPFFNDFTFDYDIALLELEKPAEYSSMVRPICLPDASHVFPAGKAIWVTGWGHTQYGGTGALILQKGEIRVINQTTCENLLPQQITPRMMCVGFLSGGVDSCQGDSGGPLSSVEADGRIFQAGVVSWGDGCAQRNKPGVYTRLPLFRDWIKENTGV
Protocol: as §1

rGPig-prostasin = rGPig-prostasin (Cavia porcellus, UniProt A0A286XIW9); assay: Biochemical assay, recombinant guinea pig prostasin, fluorescent peptide substrate
rGPig-prostasin, sequence (A0A286XIW9 1-343): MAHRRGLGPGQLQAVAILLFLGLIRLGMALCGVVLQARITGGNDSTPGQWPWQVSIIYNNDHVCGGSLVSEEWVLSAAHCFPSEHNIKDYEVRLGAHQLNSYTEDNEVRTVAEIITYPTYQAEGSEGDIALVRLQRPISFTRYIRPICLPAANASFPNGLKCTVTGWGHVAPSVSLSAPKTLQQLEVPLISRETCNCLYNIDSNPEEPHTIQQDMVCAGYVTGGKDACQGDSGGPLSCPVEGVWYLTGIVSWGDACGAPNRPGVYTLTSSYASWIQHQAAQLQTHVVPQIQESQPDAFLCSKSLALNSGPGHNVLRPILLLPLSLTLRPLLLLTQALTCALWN
Protocol: as §1

[1] = tested on: Human bronchial epithelial cells (amiloride-sensitive, ENaC-mediated short circuit current); assay: Epithelial ion transport: amiloride-sensitive short circuit current in Ussing chambers; assay type: cell-based; conditions: Epithelial cell, 1.5 h, 50% inhibition of aprotinin-sensitive component of amiloride-sensitive ISC, 90 minutes treatment, read-out: HBEC (IC50)
Protocol: as §1

[2] = tested on: Guinea pig tracheal potential difference; assay: Tracheal potential difference (in vivo); conditions: for ED50: Cavia porcellus, inhaled or nasal, i.t., read-out: GPig tracheal PD in vivo (ED50)
Protocol: Biochemical assays: Recombinant human prostasin and matriptase and guinea pig prostasin are generated according to methods described in Shipway et al., Biochemical and Biophysical Research Communications 2004; 324(2):953-63). The recombinant enzymes are incubated in an electrolyte buffer test compounds or vehicle in a suitable multiple well assay plate such as a 96 or 384 well plate. At a defined time after the mixing of enzyme with compound. Or vehicle, a suitable fluorescent peptide substrate is added to the assay mixture. As substrate becomes cleaved by the active enzyme; fluorescence (measured using a suitable fluorescence plate reader) increases and the rate of turnover of substrate (i.e. enzyme activity) can be quantified and thus the inhibitory effect of any test compound. The efficacy of test compounds is expressed as the concentration that induces a 50% attenuation in the enzyme activity (Ki). Epithelial ion transport: Human bronchial epithelial cells are cultured according to methods described in Danahay et al., American Journal of Physiology Lung Cell Molecular Physiology 2002; 282(2):L226-36). When suitably differentiated (days 14-21 after establishing an apical-air interface) epithelial cells are treated with either vehicle, aprotinin (200 μg/ml) or test compound for 90 minutes. Epithelia are then, placed into Ussing Chambers as described in Danahay et al., American Journal of Physiology Lung Cell Molecular Physiology 2002; 282(2):L226-36) maintaining the concentration of vehicle, aprotinin or test compound on the apical side of the epithelia. Short circuit current (ISC) is then measured by voltage clamping the epithelia to zero millivolts. The amiloride-sensitive ISC is then measured by the addition of amiloride (10 μM) to the apical surface of the epithelia. The potency of the test compound is expressed as the concentration inducing a 50% inhibition of the total aprotinin-sensitive component of the amiloride-sensitive ISC. Tracheal potential difference (in vivo): Guinea pigs are anaesthetized using a short acting inhalation anaesthesia such as halothane and N20. Whilst under short acting anaesthesia an oral gavage needle is inserted into the trachea via the oropharangeal route. Once inside the trachea, a small volume (50-200 μl) of vehicle or test compound, in a suitable aqueous-based diluent, is instilled into the airways. Animals then recover and become fully ambulatory. Alternatively test compounds can be administered to animals using aerosol or dry powder dosing. At a defined time after dosing, the animals are surgically anaesthetized using a suitable anaesthesia such as ketamine and xylazine. The trachea is then exposed and a plastic agar bridge electrode is inserted into the tracheal lumen. A reference electrode is also inserted into the layers, of muscle in the animal's neck. The tracheal potential difference, is then measured using a suitable high impedance voltmeter as described in Takahashi et al., Toxicol Appl Pharmacol. 1995; 131(1):31-6. The potency of the test compound is expressed as the dose inducing a 50% reduction in the sensitive-component of the tracheal potential difference.

T1 sequence (Q16651 33-343): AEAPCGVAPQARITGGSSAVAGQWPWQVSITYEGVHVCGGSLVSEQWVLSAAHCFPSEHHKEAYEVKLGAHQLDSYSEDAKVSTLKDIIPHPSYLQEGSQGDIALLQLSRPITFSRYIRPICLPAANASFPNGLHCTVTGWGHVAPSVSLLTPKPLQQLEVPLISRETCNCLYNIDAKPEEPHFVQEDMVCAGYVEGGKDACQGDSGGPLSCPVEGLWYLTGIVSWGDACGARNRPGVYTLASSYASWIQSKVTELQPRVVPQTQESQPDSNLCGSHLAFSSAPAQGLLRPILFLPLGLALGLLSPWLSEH

- pKi (rh-prostasin): 6.37
- pKi (rh-matriptase): 8.30
- pKi (rGPig-prostasin): 7.01
- pIC50 [1]: 7.30
Compound: CN(C)C(=O)COC(=O)Cc1ccc(OC(=O)c2ccc(NC(=N)N)cc2)cc1 [Camostat mesylate, N,N-dimethyl-carbamoylmethyl-p-(p-guanidinobenzoyloxy)phenylacetate]
- Mean absolute tracheal potential difference (± s.e. mean) ([2]; 2 hr, 1 μg/kg intra-tracheal): −10.0 ± 0.7
- Mean absolute tracheal potential difference (± s.e. mean) ([2]; 2 hr, 3 μg/kg intra-tracheal): −7.3 ± 0.5
- Mean absolute tracheal potential difference (± s.e. mean) ([2]; 2 hr, 10 μg/kg intra-tracheal): −6.4 ± 0.5
- Mean absolute tracheal potential difference (± s.e. mean) ([2]; 2 hr, 30 μg/kg intra-tracheal): −5.3 ± 0.3
- Mean absolute tracheal potential difference (± s.e. mean) ([2]; 2 hr, 100 μg/kg intra-tracheal): −4.7 ± 0.5
- Mean absolute tracheal potential difference (± s.e. mean) ([2]; 5 hr, 3 μg/kg intra-tracheal): −10.8 ± 1.0
- Mean absolute tracheal potential difference (± s.e. mean) ([2]; 5 hr, 10 μg/kg intra-tracheal): −9.7 ± 1.5
- Mean absolute tracheal potential difference (± s.e. mean) ([2]; 5 hr, 30 μg/kg intra-tracheal): −7.5 ± 0.4
- Mean absolute tracheal potential difference (± s.e. mean) ([2]; 5 hr, 100 μg/kg intra-tracheal): −6.5 ± 0.3
- Mean absolute tracheal potential difference (± s.e. mean) ([2]; 5 hr, 300 μg/kg intra-tracheal): −5.2 ± 0.3
- Mean absolute tracheal potential difference (± s.e. mean) ([2]; 5 hr, 1000 μg/kg intra-tracheal): −5.7 ± 0.4
- ED50 ([2]; 2 hr after dosing): 0.0033 mg/kg
- ED50 ([2]; 5 hr after dosing): 0.026 mg/kg
